“Also recorded” adds a separate entry of the source.
Experiments:
synovial liquid = test: Rabbit knee cartilage defect model: biochemical indicators (NO, SOD, MDA) in synovial liquid; assay type: in vivo, New Zealand white rabbits
Text: As used in the present invention, all of the methods for measuring SOD, NO and MDA in synovial liquid and collagen and proteoglycan in extracellular matrix of cartilage have been known and conventionally used in the art.
(§1) Fifteen (15) healthy adult New Zealand white rabbits were randomly divided into three (3) groups: a normal control group (Group A), a model control group (Group B) and a test group subject to intra-articular injection of a test peptide (Group C), with five (5) rabbits included in each of the groups. Fasting was conducted within four hours before surgical operations. Ketamine (10 mg/kg) and atropine (0.2 mg/kg) were injected in the muscle of each rabbit. After anesthesia took effect, each rabbit was confined to an operating table. An 8 cm-long longitudinal scission was made in the back of each knee before the skin was lifted. From the back of the knee, the articular capsule and synovial were opened. Then, the knee was bent for 90° to expose the cartilage at a lower end of the femur. Two cylindrical cutouts of 3 mm in diameter and 3 mm in depth were made. Coagulation was removed from each of the cutouts. The joint cavity was washed with a sterile saline solution. Stitches were made for each section. After the surgical operation, injection of penicillin was conducted against infection for a week. After five (5) days, each rabbit was able to eat and stand normally.
(§2) Two (2) weeks after the surgical operation, the rabbits of Group A and Group B were not treated, whereas the rabbits of Group C were subject to intra-articular injection of 250 ppm/kg of tetrapeptide-3 GEKG once for every seven (7) days, and the injection lasted for twelve (12) weeks. Articular injection of 0.5 ml of saline was executed, and then 0.2 ml of synovial liquid was collected. The articular capsule was cut and opened, synovial was removed, and an entire tibial joint was taken. Arthropathy in arthrodial cartilage was observed by bare eyes and also via surgical lens. Slices were taken, dyed by hematoxylin and eosin stain (HE Stain) and toluidine blue, and then observed in an optical microscope.

[1] = system: arthrodial cartilage of the knee joint; test: Rabbit knee cartilage defect model: observation by bare eyes and histomorphometry; assay type: in vivo, New Zealand white rabbits
Description: as §1, §2

[2] = system: cartilage cells of the growth plate; test: Cultivated cartilage cells: DNA content, collagen and proteoglycan production; assay type: cell-based, rabbits; conditions: 250 ppm
Description: Firstly, cartilage cells of the growth plate of the same rabbits were taken and continuously cultivated. The cultivated cells were divided into three groups. In Group I, only 250 ppm of tetrapeptide-3 GEKG was added. In Group II, only 100 ng/ml of collagen was added. In Group III, 250 ppm of tetrapeptide-3 GEKG and 100 ng/ml of collagen were added. A negative control group was also used. After new tissues of cartilage grew at a lower portion of a centrifuge tube, the new tissues were transferred to a 24-well plate for continuing cultivation, wherein the culture medium was replaced for every 2 days. During the cultivation, samples were collected after three (3), seven (7) and fourteen (14) days, and then were analyzed.
For the histological and histochemical measurements, samples were collected, and HE dying and immunochemical measurement (S-P method) were executed.
The content of DNA in the cells of cartilage was determined by the method of Hoechst 33258.
Extracellular matrix of cartilage primarily comprises collagen and proteoglycan composed of glycosaminoglycan and core protein, in addition to water. The content of the matrix and its status of the metabolism were quantitatively analyzed by determining a level of the collagen and proteoglycan in the new tissues of cartilage.
The synthesis of the collagen of the cartilage is measured by the hydroxyproline method. Because the content of hydroxyproline in the collagen was substantially constant (about 10% by weight), an amount of hydroxyproline could be used to analyze the amount of the collagen of the cartilage by using a commercial kit including the hydroxyproline reagent. The content of the collagen in the samples was calculated.

[3] = Group C vs model control group B
[4] = Group C: intra-articular injection of 250 ppm/kg once every 7 days for 12 weeks

tetrapeptide-3 GEKG
MDA level in synovial liquid (change in words) (synovial liquid; [3]): considerably reduced | SOD level in synovial liquid (change in words) (synovial liquid; [3]): considerably increased | MDA level in synovial liquid (synovial liquid; [4]): 13.12 ± 2.28 c/mol · L^−1 | NO level in synovial liquid (synovial liquid; [4]): 20.76 ± 2.88 c/mol · L^−1 | SOD level in synovial liquid (synovial liquid; [4]): 6.60 ± 1.37 c/mol · L^−1 | Morphosis of the arthrodial cartilage compared with Group B [1, 3]: significant improvement | Histomorphometric observation of repaired tissues ([1]; Group C, HE and toluidine blue stain, optical microscope): the repaired tissues were not substantially different from the normal tissues of the knee joint; also recorded: considerably repaired the damaged tissues of cartilage | Repair of knee joint injuries observed by bare eyes ([1]; Group C, after 12 weeks of intra-articular injection, 250 ppm/kg): the injuries were completely repaired | Hyperosteogeny of the cells of the cartilage ([2]; samples after 3, 7 and 14 days): considerable hyperosteogeny | Content of DNA of the cells of the cartilage (Hoechst 33258) ([2]; vs control group, FIG. 1): statistically different from that of the control group | Production of collagen of extracellular matrix of cartilage (hydroxyproline method) ([2]; vs control group, FIG. 2): considerably increased | Production of proteoglycan of extracellular matrix of cartilage ([2]; vs control group, FIG. 3): considerably increased
